In PubChem BioAssay (NCI):
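1) Cells in 96-well plates. 2) Compound, 48 h, 5 concentrations. 3) Linear interpolation between surrounding doses. 4) Unreached endpoint = highest concentration. Here, GI50 denotes the concentration required for 50% inhibition of growth. At the TGI there is no net growth.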

How the values were obtained:
Test in all cases: DTP human tumour cell line panel, 48 h
CAKI-1 renal = tested on: CAKI-1 renal
SK-MEL-2 melanoma = tested on: SK-MEL-2 melanoma
ACHN renal = tested on: ACHN renal
SK-OV-3 ovarian = tested on: SK-OV-3 ovarian
OVCAR-4 ovarian = tested on: OVCAR-4 ovarian
SF-268 CNS = tested on: SF-268 CNS
SK-MEL-5 melanoma = tested on: SK-MEL-5 melanoma
A549 NSCLC = tested on: A549 NSCLC
HS 578T breast = tested on: HS 578T breast
HOP-92 NSCLC = tested on: HOP-92 NSCLC
IGROV1 ovarian = tested on: IGROV1 ovarian
U251 CNS = tested on: U251 CNS
KM12 colon = tested on: KM12 colon
HOP-62 NSCLC = tested on: HOP-62 NSCLC
SF-295 CNS = tested on: SF-295 CNS
MOLT-4 leukemia = tested on: MOLT-4 leukemia
SNB-75 CNS = tested on: SNB-75 CNS
NCI-H522 lung = tested on: NCI-H522 lung
MDA-MB-435 = tested on: MDA-MB-435
SK-MEL-28 melanoma = tested on: SK-MEL-28 melanoma
UACC-62 melanoma = tested on: UACC-62 melanoma
DU-145 prostate = tested on: DU-145 prostate
UACC-257 melanoma = tested on: UACC-257 melanoma
MDA-MB-231 breast = tested on: MDA-MB-231 breast
OVCAR-3 ovarian = tested on: OVCAR-3 ovarian
UO-31 renal = tested on: UO-31 renal
BT-549 breast = tested on: BT-549 breast
PC-3 prostate = tested on: PC-3 prostate
HT29 colon = tested on: HT29 colon
HL-60(TB) leukemia = tested on: HL-60(TB) leukemia
NCI-H460 lung = tested on: NCI-H460 lung
MCF7 breast = tested on: MCF7 breast
MALME-3M melanoma = tested on: MALME-3M melanoma
T-47D breast = tested on: T-47D breast
SN12C renal = tested on: SN12C renal
SF-539 CNS = tested on: SF-539 CNS
HCT-116 colon = tested on: HCT-116 colon
OVCAR-5 ovarian = tested on: OVCAR-5 ovarian
NCI-H23 lung = tested on: NCI-H23 lung
SNB-19 CNS = tested on: SNB-19 CNS
TK-10 renal = tested on: TK-10 renal
SW-620 colon = tested on: SW-620 colon
RPMI-8226 leukemia = tested on: RPMI-8226 leukemia
M14 melanoma = tested on: M14 melanoma
NCI/ADR-RES ovarian = tested on: NCI/ADR-RES ovarian
SR leukemia = tested on: SR leukemia
NCI-H226 lung = tested on: NCI-H226 lung
OVCAR-8 ovarian = tested on: OVCAR-8 ovarian
786-0 renal = tested on: 786-0 renal
EKVX NSCLC = tested on: EKVX NSCLC
COLO 205 colon = tested on: COLO 205 colon
RXF 393 renal = tested on: RXF 393 renal
HCT-15 colon = tested on: HCT-15 colon
K-562 leukemia = tested on: K-562 leukemia

With O=C(CC(=O)c1ccccc1)c1ccccc1 the GI50 (CAKI-1 renal) was 20.1 µM, the TGI (CAKI-1 renal) was 66 µM and the GI50 (SK-MEL-2 melanoma) was 87 µM. For the same molecule, the TGI (SK-MEL-2 melanoma) was greater than 100 µM, the GI50 (ACHN renal) was 11.5 µM and the TGI (ACHN renal) was 34.5 µM. It also gave a GI50 (SK-OV-3 ovarian) of 22.2 µM, a TGI (SK-OV-3 ovarian) greater than 100 µM and a GI50 (OVCAR-4 ovarian) of 27.9 µM. It also gave a TGI (OVCAR-4 ovarian) greater than 100 µM, a GI50 (SF-268 CNS) of 10.9 µM and a TGI (SF-268 CNS) of 57.7 µM. The GI50 (SK-MEL-5 melanoma) was 11.5 µM, the TGI (SK-MEL-5 melanoma) was 32.4 µM and the GI50 (A549 NSCLC) was 26.9 µM. It also gave a TGI (A549 NSCLC) of 69.5 µM, a GI50 (HS 578T breast) of 25.4 µM and a TGI (HS 578T breast) greater than 100 µM. For the same molecule, the GI50 (HOP-92 NSCLC) was 15.8 µM, the TGI (HOP-92 NSCLC) was 51.3 µM and the GI50 (IGROV1 ovarian) was 19.9 µM. It also gave a TGI (IGROV1 ovarian) greater than 100 µM, a GI50 (U251 CNS) of 2.15 µM and a TGI (U251 CNS) of 8.05 µM. The GI50 (KM12 colon) was 3.98 µM, the TGI (KM12 colon) was greater than 100 µM and the GI50 (HOP-62 NSCLC) was 7.72 µM. For the same molecule, the TGI (HOP-62 NSCLC) was 39.6 µM, the GI50 (SF-295 CNS) was 17.3 µM and the TGI (SF-295 CNS) was 99.7 µM. It also gave a GI50 (MOLT-4 leukemia) of 17.3 µM, a TGI (MOLT-4 leukemia) greater than 100 µM and a GI50 (SNB-75 CNS) of 22.9 µM. The TGI (SNB-75 CNS) was greater than 100 µM, the GI50 (NCI-H522 lung) was 29.3 µM and the TGI (NCI-H522 lung) was greater than 100 µM. It also gave a GI50 (MDA-MB-435) of 29.3 µM, a TGI (MDA-MB-435) greater than 100 µM and a GI50 (SK-MEL-28 melanoma) of 31 µM. The TGI (SK-MEL-28 melanoma) was greater than 100 µM, the GI50 (UACC-62 melanoma) was 21.7 µM and the TGI (UACC-62 melanoma) was 77.5 µM. For the same molecule, the GI50 (DU-145 prostate) was 11.9 µM, the TGI (DU-145 prostate) was 65.3 µM and the GI50 (UACC-257 melanoma) was 23.6 µM. It also gave a TGI (UACC-257 melanoma) of 84.5 µM, a GI50 (MDA-MB-231 breast) greater than 100 µM and a TGI (MDA-MB-231 breast) greater than 100 µM. For the same molecule, the GI50 (OVCAR-3 ovarian) was 16.2 µM, the TGI (OVCAR-3 ovarian) was 53.5 µM and the GI50 (UO-31 renal) was 36.5 µM. It also gave a TGI (UO-31 renal) greater than 100 µM, a GI50 (BT-549 breast) of 9.37 µM and a TGI (BT-549 breast) of 34.3 µM. For the same molecule, the GI50 (PC-3 prostate) was 25.9 µM, the TGI (PC-3 prostate) was greater than 100 µM and the GI50 (HT29 colon) was 30.1 µM. It also gave a TGI (HT29 colon) greater than 100 µM, a GI50 (HL-60(TB) leukemia) of 12.3 µM and a TGI (HL-60(TB) leukemia) greater than 100 µM. For the same molecule, the GI50 (NCI-H460 lung) was 7.94 µM, the TGI (NCI-H460 lung) was 40 µM and the GI50 (MCF7 breast) was 10.1 µM. It also gave a TGI (MCF7 breast) of 82.3 µM, a GI50 (MALME-3M melanoma) of 23.2 µM and a TGI (MALME-3M melanoma) of 64.1 µM. It also gave a GI50 (T-47D breast) of 14.9 µM, a TGI (T-47D breast) of 46.1 µM and a GI50 (SN12C renal) of 52.8 µM. For the same molecule, the TGI (SN12C renal) was greater than 100 µM, the GI50 (SF-539 CNS) was 4.5 µM and the TGI (SF-539 CNS) was 16.2 µM. For the same molecule, the GI50 (HCT-116 colon) was 16.6 µM, the TGI (HCT-116 colon) was greater than 100 µM and the GI50 (OVCAR-5 ovarian) was 25.6 µM. It also gave a TGI (OVCAR-5 ovarian) greater than 100 µM, a GI50 (NCI-H23 lung) of 13.6 µM and a TGI (NCI-H23 lung) of 43.4 µM. For the same molecule, the GI50 (SNB-19 CNS) was 27 µM, the TGI (SNB-19 CNS) was greater than 100 µM and the GI50 (TK-10 renal) was 20.5 µM. For the same molecule, the TGI (TK-10 renal) was 93.7 µM, the GI50 (SW-620 colon) was 13.2 µM and the TGI (SW-620 colon) was greater than 100 µM. It also gave a GI50 (RPMI-8226 leukemia) of 21.3 µM, a TGI (RPMI-8226 leukemia) greater than 100 µM and a GI50 (M14 melanoma) of 14.1 µM. The TGI (M14 melanoma) was 44.7 µM, the GI50 (NCI/ADR-RES ovarian) was 16.8 µM and the TGI (NCI/ADR-RES ovarian) was 44 µM. For the same molecule, the GI50 (SR leukemia) was 11.7 µM, the TGI (SR leukemia) was greater than 100 µM and the GI50 (NCI-H226 lung) was 37.2 µM. The TGI (NCI-H226 lung) was greater than 100 µM, the GI50 (OVCAR-8 ovarian) was 20.4 µM and the TGI (OVCAR-8 ovarian) was greater than 100 µM. For the same molecule, the GI50 (786-0 renal) was 11 µM, the TGI (786-0 renal) was 43.6 µM and the GI50 (EKVX NSCLC) was 11.2 µM. The TGI (EKVX NSCLC) was 38 µM, the GI50 (COLO 205 colon) was 22.5 µM and the TGI (COLO 205 colon) was greater than 100 µM. The GI50 (RXF 393 renal) was 22 µM, the TGI (RXF 393 renal) was 88 µM and the GI50 (HCT-15 colon) was 2.06 µM. It also gave a TGI (HCT-15 colon) of 6.82 µM, a GI50 (K-562 leukemia) of 8.31 µM and a TGI (K-562 leukemia) greater than 100 µM.
